# Laboratory results taken from US9452036B2, “Dental ultrasonic drug delivery system and dental ultrasonic drug delivery method” (priority 2009, dated 2016).
# Experiments:
# [1] = tested on: kanamycin-resistant enterococcus faecalis (lactococcus); experiment: In vivo tubule sterilization test using ultrasound and nanobubbles (canine tooth root canal)
# Procedure: After a canine tooth had been subjected to access cavity preparation and root canal enlargement (to #60) in vivo by common methods, a smear layer was removed with a Smear Clean (Nippon Shika Yakuhin Co., Ltd.). Then, the inside of the root canal was sufficiently dried with a cotton plug. Thereafter, 10 μl of a bacterial culture (a brain heart infusion (BHI) broth, Nissui Pharmaceuticals Co., Ltd., containing kanamycin) in which kanamycin-resistant enterococcus faecalis (lactococcus) subjected to gene transfer of pEGFP-C1 (clontech) was cultured was injected into each root canal. Subsequently, the root canal was temporarily sealed with zinc phosphate cement. Then, after 7 days, the root canal was irrigated with 3 ml of a saline solution. Thereafter, 20 μl of a drug solution containing 10% nanobubbles and 50 μg/ml of ampicillin was applied into the root canal. Then, with an ultrasound generator (SonoPore KTAC-4000), an ultrasonic device with a diameter of 1 mm of a detachable irradiation tube propagation type probe (i.e., an applicator type in which a Langevin transducer is provided inside a probe body) was inserted into the root canal, and ultrasound was delivered at a voltage of 30 V, a frequency of 1.186 MHz, a burst rate of 18.8 Hz, and a pulse-duty ratio of 50% for an application time of 120 seconds. […]
# E. Coli = experiment: In vitro tubule sterilization test using sodium hypochlorite and nanobubbles (extracted bovine teeth); type: cell-based; conditions: for OD600 value: paper point cultured 12 hours
# Procedure: Using ten extracted bovine teeth (anterior teeth), the apical area of each of the teeth was filled with photopolymerization type ionomer cement. Then, the inside of the root cavity was treated with 6% sodium hypochlorite, irrigated, and sterilized with an autoclave. Thereafter, the inside of the root canal was sufficiently irrigated with a sterilized saline solution, dried with a paper point, filled with an E. Coli saturated solution, and then cultured in a humidity bath at 37° C. for a night. Then, the E. Coli solution in the root canal was sucked with a paper point, and the root canal was filled with an irrigation solution and 1% or 0.1% sodium hypochlorite. Thereafter, 5% nanobubbles were injected into the root canal, and ultrasound was applied thereto at a voltage of 30 V, a frequency of 1.186 MHz, a burst rate of 18.8 Hz, and a pulse-duty ratio of 50% for 120 seconds. Subsequently, the root canal was sufficiently irrigated with a saline solution, and the tooth was left for one minute with a paper point inserted into the root canal. Then, the paper point was cultured. After 12 hours, the amount of bacteria was measured with an absorbance OD600.
# [2] = In-vitro test for drug permeation in root canal using ultrasound and nanobubbles (extracted canine tooth, fluorescence); type: in vitro ADME
# Excerpt: After an extracted canine tooth had been subjected to access cavity preparation and root canal enlargement (to #60) by common methods, a smear layer was removed with a Smear Clean (Nippon Shika Yakuhin Co., Ltd.), and the tooth was refrigerated in a saline solution until being used in an experiment. Then, the inside of the root canal was sufficiently dried with a cotton plug. Thereafter, to prevent a drug solution from leaking from the root canal, an apical area was filled with a Unifast III (GC Corporation). Subsequently, nanobubbles were diluted with a saline solution such that the concentration of the nanobubbles is 5% or 10% (where the bubble concentration will be expressed in terms of vol % hereinafter), thereby preparing a drug solution containing 4.5 mg/ml tetracycline (SIGMA088K0680). The 5% nanobubbles herein mean that the concentration of the nanobubbles is 6×10^8/ml. The 10% nanobubbles herein mean that the concentration of the nanobubbles is 1.2×10^9/ml. Since even a small amount of deposited tetracycline produces fluorescence when irradiated with ultraviolet radiation, a deposition site can be easily detected with a fluorescence microscope. As a control, microbubbles (Optison (Molecular Biosystems Inc., San Diego)) were used, and a 5% or 10% drug solution was used. The 5% microbubbles herein mean that the concentration of the microbubbles is 6×10^8/ml. The 10% microbubbles herein mean that the concentration of the microbubbles is 1.2×10^9/ml. Then, 20 μl of the drug solution was applied into the root canal, and using an ultrasound generator (SonoPore KTAC-4000), an ultrasonic device with a diameter of 1 mm of a detachable irradiation tube propagation type probe (i.e., an applicator type in which a Langevin transducer is provided inside a probe body) was inserted into the root canal, and the device was operated. Operating conditions were that the voltage was 30 V (0.13-0.20 W indicated by a meter) or 31 V, the frequency was 1.186 MHz, the burst rate was 18.8 Hz, the pulse-duty ratio was 50%, and the application time was 120 seconds. After a lapse of the application time, the dilution solution was sufficiently removed with a cotton plug, and then a section with a thickness of 150 μm was prepared with a saw microtome (Leica SP1600), and a microscopic examination was performed with a stereomicroscope under ultraviolet irradiation. The degree of delivery of the drug into dentin tubules was observed based on fluorescence reaction.
compound,measurement,setting,value
CC1(C)S[C@@H]2[C@H](NC(=O)[C@H](N)c3ccccc3)C(=O)N2[C@H]1C(=O)O [ampicillin],bacteria in the lateral wall of the root canal,"[1]; 50 μg/ml ampicillin delivered using 10% nanobubbles and ultrasound 30 V, 120 seconds, fourth day (FIG. 25A)",no bacteria were observed
same,bacteria in the lateral wall of the root canal,"[1]; only ampicillin, fourth day (FIG. 25B)",bacteria were not completely killed
OCl [sodium hypochlorite],sterilization of the inside of the root canal,E. Coli; 0.1% sodium hypochlorite,sterilized only in the presence of 5% nanobubbles
same,bactericidal effect in the root canal,"E. Coli; 1% sodium hypochlorite, irrespective of the presence of 5% nanobubbles",a bactericidal effect was obtained
same,OD600 value,"E. Coli; sodium hypochlorite 1.0, 5% nanobubbles +, ultrasound 30 V 120 seconds",0
same,OD600 value,"E. Coli; sodium hypochlorite 1.0, 5% nanobubbles −",0
CN(C)[C@@H]1C(O)=C(C(N)=O)C(=O)[C@@]2(O)C(O)=C3C(=O)c4c(O)cccc4[C@@](C)(O)[C@H]3C[C@@H]12 [tetracycline],degree of delivery of the drug to dentin tubules,"[2]; 5% microbubbles, no ultrasound (FIG. 21E)",insufficient
same,degree of delivery of the drug to dentin tubules,"[2]; 5% microbubbles, ultrasound 30 V (FIG. 21D)",insufficient
same,degree of delivery of the drug to dentin tubules,"[2]; 5% nanobubbles, no ultrasound (FIG. 21C)",insufficient
same,degree of delivery of the drug to dentin tubules,"[2]; 5% nanobubbles, ultrasound 30 V, 120 seconds, 4.5 mg/ml tetracycline (FIG. 21A)",high
same,degree of delivery of the drug to dentin tubules,"[2]; 5% nanobubbles, ultrasound 31 V (FIG. 21B)",insufficient
same,degree of delivery of the drug to dentin tubules,"[2]; 10% microbubbles, no ultrasound (FIG. 22E)",insufficient
same,degree of delivery of the drug to dentin tubules,"[2]; 10% microbubbles, ultrasound 30 V (FIG. 22D)",insufficient
same,degree of delivery of the drug to dentin tubules,"[2]; 10% nanobubbles, no ultrasound (FIG. 22C)",insufficient
same,degree of delivery of the drug to dentin tubules,"[2]; 10% nanobubbles, ultrasound 30 V, 120 seconds, 4.5 mg/ml tetracycline (FIG. 22A)",high
same,degree of delivery of the drug to dentin tubules,"[2]; 10% nanobubbles, ultrasound 31 V (FIG. 22B)",insufficient
same,drug permeation with nanobubbles compared with microbubbles,[2]; bubble concentrations of 5% and 10%,more significantly permeates
same,"degree of delivery of the drug to dentin tubules, 10% nanobubbles compared with 5% nanobubbles",[2]; ultrasound 30 V (FIGS. 21A and 22A),higher
